In US7064120B2, “Tricyclic pyridyl carboxamides and derivatives thereof tocolytic oxytocin receptor antagonists” (Wyeth, priority 2001, dated 2006) one finds inhibition and IC50 data, which are given here for 10 compounds.

Usually inhibition stands for how much of the control response was suppressed. The pIC50 is the IC50 on a negative log10 scale, so that one unit is a factor of ten.

Molecules are shown by their SMILES. pIC50: −log10 of the molar value.

The target of the first test is T1, human vasopressin V2 receptor subtype (Homo sapiens, UniProt P30518).
T1 construct: host or cells: CHO cells, stably transfected (pZeoSV vector)
T1 sequence (P30518 whole entry): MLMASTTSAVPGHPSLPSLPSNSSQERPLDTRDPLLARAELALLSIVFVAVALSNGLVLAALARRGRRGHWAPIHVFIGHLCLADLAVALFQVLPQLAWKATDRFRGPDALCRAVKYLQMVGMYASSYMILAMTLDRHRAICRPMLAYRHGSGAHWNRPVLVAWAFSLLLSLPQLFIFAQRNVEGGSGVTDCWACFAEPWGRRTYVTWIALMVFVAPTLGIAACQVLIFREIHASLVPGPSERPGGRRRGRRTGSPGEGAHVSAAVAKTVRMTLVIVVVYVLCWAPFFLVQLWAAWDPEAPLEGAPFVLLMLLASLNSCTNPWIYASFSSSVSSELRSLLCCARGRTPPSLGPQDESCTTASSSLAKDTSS
As to the kind of experiment: Vasopressin binding in CHO cell membranes expressing human vasopressin V2 subtype receptors ([3H]arginine vasopressin radioligand binding). As to conditions: 100 nM. An outline of the steps:
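Membranes from CHO cells stably expressing human V2 receptor (25 to 50 μg protein/well) incubated 60 min at room temperature with [3H]arginine vasopressin in Tris-HCl pH 7.4 buffer with MgCl2, BSA and protease inhibitors. Filtration, scintillation counting; percent inhibition at one concentration or IC50 (nM).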
Compound `Cc1ccccc1-c1ccc(C(=O)N2Cc3ccc(C(=O)N(C)Cc4cccnc4)n3Cc3ccccc32)cc1` [Example 105, N-Methyl-10-[(2′-methyl-[1,1′-biphenyl]-4-yl)carbonyl]-N-(3-pyridinylmethyl)-10,11-dihydro-5H-pyrrolo[2,1-c][1,4]benzodiazepine-3-carboxamide] registered an inhibition at 0.1 µM of 6%.

As for `COc1cccc(-c2ccc(C(=O)N3Cc4ccc(C(=O)N5CCN(c6ccccn6)CC5)n4Cc4ccccc43)cc2C)c1` [Example 77, {10-[(3′-Methoxy-2-methyl-[1,1′-biphenyl]-4-yl)carbonyl]-10,11-dihydro-5H-pyrrolo[2,1-c][1,4]benzodiazepin-3-yl}[4-(2-pyridinyl)-1-piperazinyl]methanone], the inhibition at 0.1 µM stood at 10%.

For the compound `COc1cccc(-c2ccc(C(=O)N3Cc4ccc(C(=O)NCc5ccncc5)n4Cc4ccccc43)cc2C)c1` [Example 90, 10-[(3′-Methoxy-2-methyl-[1,1′-biphenyl]-4-yl)carbonyl]-N-(4-pyridinylmethyl)-10,11-dihydro-5H-pyrrolo[2,1-c][1,4]benzodiazepine-3-carboxamide], the inhibition at 0.1 µM stood at 11%.

`Cc1cc(C(=O)N2Cc3ccc(C(=O)N(C)CCc4ccccn4)n3Cc3ccccc32)ccc1-c1ccccc1C(F)(F)F` [Example 74, N-Methyl-10-{[2-methyl-2′-trifluoromethyl-[1,1′-biphenyl]-4-yl]carbonyl}-N-[2-(2-pyridinyl)ethyl]-10,11-dihydro-5H-pyrrolo[2,1-c][1,4]benzodiazepine-3-carboxamide]: the inhibition at 0.1 µM was found to be 1%.

For the compound `O=C(NCc1ccncc1)c1ccc2n1Cc1ccccc1N(C(=O)c1ccc(-c3cccc4ccccc34)cc1Cl)C2` [Example 99, 10-[2-Chloro-4-(naphthalen-1-yl)benzoyl]-N-(4-pyridinylmethyl)-10,11-dihydro-5H-pyrrolo[2,1-c][1,4]benzodiazepine-3-carboxamide], the inhibition at 0.1 µM was 12%.

For `COc1ccccc1-c1ccc(C(=O)N2Cc3ccc(C(=O)N4CCN(c5ccccn5)CC4)n3Cc3ccccc32)cc1OC` [Example 84, {10-[(2,2′-Dimethoxy-[1,1′-biphenyl]-4-yl)carbonyl]-10,11-dihydro-5H-pyrrolo[2,1-c][1,4]benzodiazepin-3-yl}[4-(2-pyridinyl)-1-piperazinyl]methanone], 0.1 µM produced 14% inhibition.

The test is the same for the next values; noted with them: value in parentheses.
Consider `COc1cc(C(=O)N2Cc3ccc(C(=O)N(C)Cc4ccc[n+]([O-])c4)n3Cc3ccccc32)ccc1-c1ccccc1C(F)(F)F` [Example 8, 10-{[2-Methoxy-2′-trifluoromethyl-[1,1′-biphenyl]-4-yl]carbonyl}-N-methyl-N-(1-oxo-pyridin-3-ylmethyl)-10,11-dihydro-5H-pyrrolo[2,1-c][1,4]benzodiazepine-3-carboxamide], for which the pIC50 is 6.63.

`Cc1cc(C(=O)N2Cc3ccc(C(=O)N(C)Cc4cccnc4)n3Cc3ccccc32)ccc1-c1ccccc1C(F)(F)F` [Example 112, N-Methyl-10-{[2-methyl-2′-trifluoromethyl-[1,1′-biphenyl]-4-yl]carbonyl}-N-(3-pyridinylmethyl)-10,11-dihydro-5H-pyrrolo[2,1-c][1,4]benzodiazepine-3-carboxamide]: the negative logarithm of the IC50 (pIC50) is 5.95.

With `COc1ccccc1-c1ccc(C(=O)N2Cc3ccc(C(=O)N4CCN(c5ccncc5)CC4)n3Cc3ccccc32)cc1C` [Example 113, {10-[(2′-Methoxy-2-methyl-[1,1′-biphenyl]-4-yl)carbonyl]-10,11-dihydro-5H-pyrrolo[2,1-c][1,4]benzodiazepin-3-yl}[4-(4-pyridinyl)-1-piperazinyl]methanone], the negative-log IC50 (pIC50) is 6.26.

`COc1cc(-c2ccccc2C)c(Cl)cc1C(=O)N1Cc2ccc(C(=O)N(C)CCc3ccccn3)n2Cc2ccccc21` [Example 63, 10-[(6-Chloro-3-methoxy-2′-methyl-[1,1′-biphenyl]-4-yl)carbonyl]-N-methyl-N-[2-(2-pyridinyl)ethyl]-10,11-dihydro-5H-pyrrolo[2,1-c][1,4]benzodiazepine-3-carboxamide]: the pIC50 is 6.15.
